Results on seven compounds are retold here after US20110098177A1, “METHODS AND COMPOSITIONS OF PLANT MICRONUTRIENTS” (NOVUS INTERNATIONAL INC., priority 2006, published 2011).

What all share (assay type): in vivo
Data set [1] relates to Aristotle bell pepper. On the procedure:
(§1) The following experiments were performed in a green house during the fall of 2007 at GCREC, Balm, University of Florida. Fifteen products, at 3 different application rates were examined. The plot size was 2-gallon pots. Crop set-up, procedures and variables were as follows.
(§2) Transplants of ‘Florida-47’ tomato and ‘Aristotle’ bell pepper plants in the 4-true leaf stage (about 6 inches tall) were planted in 2-gal pots on Aug. 27, 2007. Pots were filled with a commercially available planting medium. This medium was selected based on the mineral composition of the products to be applied without providing significant nutritional inputs to the crops. Irrigation was provided with drip lines delivering between 0.50 and 0.33 gal/day/pot for tomato and bell pepper, respectively, and the crops were irrigated three times per day. No foliar pesticides were necessary.
(§3) There were four control treatments corresponding to each target micronutrient in which non-Fe, non-Mn, non-Zn or non-Cu pots received all other essential nutrients under non-limiting conditions.
(§4) Treatments were applied at three rates (high, medium and low) obtained from the estimated concentration of Zn, Fe, Cu, and Mn foliarly-applied in tomato and bell pepper in field situations (Table 1). Products were weighed and dissolved in 200 ml of deionized water with a non-ionic surfactant and applied to the newly-matured open leaves of each crop at 3 and 7 weeks after transplant (WAT). Treated pots were isolated during application to avoid cross-contamination of other treatments.
(§5) Medium nutrient concentration was determined 1 week before treatment. The mineral composition of the medium was 26.8 ppm NH4—N, 49 ppm NO3—N, 15.8 ppm P, 91.2 ppm K, 82.3 ppm Ca, 58.2 ppm Mg, 23.9 ppm Na, 125.6 ppm S, 1.33 ppm Fe, 0.39 ppm Mn, 0.35 ppm Zn, 0.05 pp, Cu, 0.04 ppm B, 0 ppm Mo, 0.73 ppm Al, and 12.1 ppm Si. The pH of the medium was 5.36 and the electric conductivity was 1.38 mS/cm. The foliar tissue analysis was performed at 6 WAT and the concentration of N, P, K, Mg, Ca, S, B, Zn, Mn, Fe, and Cu was determined by a commercial laboratory. Plant toxicity was determined at 4 WAT by using a 0-10 visual scale, where 0=no visible damage and 10=total plant death. Marketable fruit weight was collected 2 times in bell pepper and 4 times in tomato following USDA standards.
(§6) Data were analyzed using a general linear model, and means were separated using orthogonal contrasts at the 5% significance level.

Data set [2] relates to Florida-47 tomato. The procedure:
as §1, §2, §3, §4, §5, §6

Data set [3] concerns Tygress tomato plants. Briefly: Foliar nutrient concentration at 7 WAT, greenhouse tomato spring 2009 (Examples 13-15). On the procedure:
(§7) The following experiments were performed in a green house during the spring of 2009 at GCREC, Balm, University of Florida. Crop set-up, procedures and variables were as follows.
(§8) Transplants of ‘Tygress’ tomato plants were planted in 2-gallon pots filled with commercial planting medium with nutrient concentration of Fe, Zn, Mn, Cu being negligible and insufficient for crop growth. Irrigation and non-micronutrient fertilizer were provided daily through microsprinklers at recommended rates for tomato production in Florida. No pesticides were used. Treatments were as described in Tables 42, 43, and 44 below. BIOX-Cu was compared to Cu-sulfate, BIOX-EDC, and BIOX-O; and BIOX-Fe was compared to Fe-sulfate and BIOX-EDF. BIOX-MEZ is Ca-HMTBA.
(§9) Treatments were applied at 6 WAT (weeks after transplanting) using a water volume of 200 mL/plant. Deionized water was used for foliar applications. A non-ionic surfactant was added. Other nutrients were applied as appropriate under non-limiting conditions.
Foliar tissue nutrient analysis was performed at 3 WAT (i.e., 3 weeks before treatment) and 7 WAT (i.e., 1 weeks after treatment) on the non-applied newest leaves. The concentrations of N, P, K, Mg, Ca, B, Zn, Mn, Fe, and Cu in the foliar tissue were determined by a commercial laboratory. There were no significant differences between the foliar nutrient concentrations of any of the treatment groups prior to treatment.
(§10) Experimental design was a randomized complete block design with 6 replications. Data were analyzed using a general linear model, and means were separated using an LSD test at the 5% significance level.

Data set [4] has as its system Tygress tomato plants. Put plainly: Yields of tomato fruits, greenhouse spring 2009 (Examples 13-15). The procedure: as §7, §8, §9
Marketable fruit were collected three times during the growing season, starting at 10 WAT (4 weeks after the initial treatment). Tomato fruit was graded as marketable and non-marketable. Marketable fruit was sized as extra-large, large, and medium. Non-marketable fruit were harvested and number and weight recorded but not sized.
as §10

Data set [5] relates to Tygress tomato plants. Conditions: for Toxicity (0-10): 0=no injury, 10=plant death. The procedure:
as §7, §8, §9
Toxicity of the treatments was assessed by rating foliar tissue using a visual scale, where 0=no injury and 10=plant death.
as §10

Data set [6] concerns Tygress tomato plants. Briefly: Foliar nutrient concentration at 6 WAT, open-field tomato (Examples 7-10). Conditions: in vivo. On the procedure: The following experiments were performed in open-field plots during the spring of 2008 at GCREC, Balm, University of Florida. Four products delivering Zn (BIOX-Z), Mn (BIOX-M), Cu (BIOX-Cu), and Fe (BIOX-Fe) were compared to other micronutrient supplement formulations in tomato and bell pepper plants.
The plot sizes for the tomato plants were 30-ft plots (15 plants per plot) and 15-ft plots were used for the bell pepper plants (30 plants per plot). Crop set-up, procedures and variables were as follows.
Transplants of ‘Tygress’ tomato plants and ‘Patriot’ bell pepper plants in the 4-true leaf stage (about 6 inches tall) were planted in raised beds in open-field plots. The cross-section of each raised bed was 28 inches wide at the top, 32 inches wide at the base, and 8 inches tall. Irrigation and non-micronutrient fertilizer were provided daily through two drip lines per bed (0.45 gal/100 ft bed/min) at recommended rates for tomato and bell pepper production in Florida. […] The height of the plants for each of the treatment groups was measured at 3 weeks after transplantation (WAT), just prior to treatment with the experimental foliar fertilizers.
All foliar fertilizers except BIOX-CM were applied to the various treatment groups at 3 weeks after transplantation (WAT) and again at 5 WAT. The BIOX-CM treatment was applied at 4 and 5 WAT. The working water volume was 60 gal/acre and a non-ionic surfactant (Ad-Spray 80) was added in the amount of 2 pints/100 gal water. All plots were sprayed with sprayers pressurized at 25 psi and the canopies of both crops were covered with the micronutrient solutions. Treated plots were isolated during foliar fertilizer application to avoid the cross-contamination of other treatments on adjoining plots.
Leaf samples were collected from the most recent mature leaves from each plant at 6 WAT (2 weeks after initial treatment). Foliar tissue analysis was performed by a commercial laboratory to determine the concentration of N, P, K, Mg, Ca, B, Zn, Mn, Fe, and Cu. Tomato marketable fruit weights were collected at 10 and 12 WAT, and the fruits were graded according to USDA standards. Pepper marketable fruit weights were determined beginning at 5 WAT over 5 weekly harvests. Fruit mineral analysis (N, P, K, Mg, Ca, B, Zn, Mn, Fe, and Cu) was performed on samples from the tomato harvest.
The experimental design was a randomized complete block design with 5 replications for each treatment. All comparison data were analyzed using a general linear model and the means of each treatment were separated with a Fisher's protected LSD test at the 5% significance level.

Setting [7] is: High rate, 1 week after treatment, scale 0 = no visible injury, 10 = plant death.
Setting [8] is: Low rate, 1 week after treatment, scale 0 = no visible injury, 10 = plant death.
Where [9] appears, read: Medium rate, 1 week after treatment, scale 0 = no visible injury, 10 = plant death.
The mark [10] stands for this setting: tomato and bell pepper plants stated together, Fall 2007 greenhouse.
Where [11] appears, read: BIOX-Cu at 0.46 and 0.55 lb/acre, Cu-sulfate at 0.8 lb/acre, BIOX-EDC at 0.4 lb/acre.

Read-outs that look alike come from different tables or passages of the source.

As to manganese glycinate [BIOX-GM], the Pepper toxicity in data set [1] (setting [7]), in data set [1] (setting [8]) and in data set [1] (setting [9]) was 7 throughout. Also, the Tomato toxicity in data set [2] (setting [7]), in data set [2] (setting [8]) and in data set [2] (setting [9]) was 7 throughout. Moreover, the Toxicity scale score in data set [2] (similar manganese concentrations (0.015% to 0.124% by weight), scale 0-10, both crops) is 7. In data set [2] (setting [10]), the “Foliar injury (in words)” value is “from light leaf speckling to severe necrosis and plant decay”.

As to `O=S(=O)([O-])[O-].[Fe+2]` [Fe sulfate], the “Foliar Fe concentration” value in data set [3] (Fe 2.0 lb/acre, tomato leaves 1 week after treatment) stood at 888 ppm. For the same compound, the Marketable yield in data set [4] (Fe 2.0 lb/acre) is on record as 1100 g/plant. The “Toxicity (0-10)” value in data set [5] (Fe 2.0 lb/acre) came out at 5.

Consider `O=S(=O)([O-])[O-].[Cu+2]` [Cu sulfate], for which the “Foliar Cu concentration” value in data set [3] (Cu 0.8 lb/acre, tomato leaves 1 week after treatment) is given as 986 ppm. In addition, the Marketable yield in data set [4] (Cu 0.8 lb/acre) came out at 1200 b g/plant. Further, the “Toxicity (0-10)” value in data set [5] (Cu 0.8 lb/acre) turned out to be 6.

Turning to EDTA chelated iron [BIOX-EDI], the Pepper toxicity in data set [1] (setting [7]), in data set [1] (setting [8]) and in data set [1] (setting [9]) was 9 each time. For the same compound, the Tomato toxicity in data set [2] (setting [7]), in data set [2] (setting [8]) and in data set [2] (setting [9]) was 8 throughout. For the same compound, in data set [2] (setting [10]), the “Foliar injury (in words)” value was “from light leaf speckling to severe necrosis and plant decay”.

`NCC(=O)[O-].NCC(=O)[O-].[Cu+2]` [BIOX-GC, copper glycinate] showed a Pepper toxicity in data set [1] (in vivo) of 7. In data set [2] (in vivo), the “Foliar injury (in words)” value is “from light leaf speckling to severe necrosis and plant decay”; the Tomato toxicity is reported as 7; the Toxicity scale score amounted to 7. Besides, in data set [6], the “Foliar Zn concentration of tomato plants, statement” value is recorded as “slightly higher foliar Zn concentration”.

For the compound `O=S(=O)([O-])[O-].[Fe+2]` [BIOX-INI, ferrous sulfate], the Pepper toxicity in data set [1] (in vivo) was found to be 7. In data set [2] (in vivo), the “Foliar injury (in words)” value is “from light leaf speckling to severe necrosis and plant decay”; the Tomato toxicity is on record as 7; the Toxicity scale scores is 7-9. In addition, the “Foliar Fe concentration in tomato leaves, statement” value in data set [3] (7 WAT (1 week after treatment)) was “highest Fe concentrations”. Further, the “Marketable tomato yields compared to non-treated control, statement” value in data set [4] (BIOX-Fe at all levels, Fe-sulfate at 2.0 lb/acre, BIOX-EDF at 0.3 lb/acre) is on record as “decreased marketable yields relative to the non-treated control”. Moreover, the “Toxicity relative to the non-treated control, statement” value in data set [5] (all levels of BIOX-Fe, Fe-sulfate at 2.0 lb/acre, BIOX-EDF at 0.3 lb/acre) is “increased toxicity”.

With EDTA chelated copper [BIOX-EDC], the Pepper toxicity in data set [1] (setting [7]), in data set [1] (setting [8]) and in data set [1] (setting [9]) was 8 each time. Further, the Tomato toxicity in data set [2] (setting [7]), in data set [2] (setting [8]) and in data set [2] (setting [9]) was 8 throughout. Further, in data set [2] (comparable ranges of copper concentrations (0.004% to 0.061% by weight), scale 0-10, both crops), the Toxicity scale score is reported as 8. The “Foliar injury (in words)” value in data set [2] (setting [10]) was “from light leaf speckling to severe necrosis and plant decay”. Also, the “Copper concentrations in tomato leaves, statement” value in data set [3] (7 WAT (1 week after treatment)) is given as “highest leaf copper concentrations”. In data set [3] (Cu 0.4 lb/acre, tomato leaves 1 week after treatment), the “Foliar Cu concentration” value came out at 678 ppm. Besides, the “Marketable tomato yields compared to non-treated control, statement” value in data set [4] (setting [11]) is listed as “did not alter marketable yields relative to the non-treated control”. Further, the Marketable yield in data set [4] (Cu 0.4 lb/acre) was 1550 b g/plant. In addition, the “Toxicity compared to non-treated control plants, statement” value in data set [5] (setting [11]) was “increased levels of toxicity”. Also, the “Toxicity (0-10)” value in data set [5] (Cu 0.4 lb/acre) is reported as 6.
